The record followed here is PMC6269873, “Substituted 3-Benzylcoumarins as Allosteric MEK1 Inhibitors: Design, Synthesis and Biological Evaluation as Antiviral Agents” (Molecules, 2013).

Where two headings read alike, the source gives them in different places.

The target in one data set is phosphorylated MEK1 (Homo sapiens, UniProt Q02750). The data set can be described thus: MEK1 binding assay (HTRF, tracer displacement). Particulars: for inhibition at 2 µM: read-out: % binding (2 µM); for inhibition at 20 µM: read-out: % binding (20 µM). As to the method: The homogeneous time resolved fluorescence (HTRF) assay was performed on a Proxiplate-384 F plus solid back plate (Perkin Elmer, Waltham, MA. USA) with 5 nM GST tagged phosphorylated MEK1 (GST-MEK1), 2 nM europium-labeled anti-GST antibody (Eu-anti-GST), 20 nM kinase tracer 236 and test compound at a variety of concentrations. In the reaction mixture, GST-MEK1 forms a complex with the Eu-anti-GST and the tracer. Excitation of europium (the donor) using a 340-nm excitation filter results in energy transfer to the fluorophore of the tracer. This energy transfer is detected by an increase in the fluorescence emission of the tracer at 665 nm and a decrease in the fluorescence emission of europium at 615 nm. The FRET ratio was calculated by dividing the emission signal at 665 nm by the emission signal at 615 nm. A competitor compound such as a MEK inhibitor replaces the tracer from the complex and decreases the FRET ratio accordingly. The plate was incubated in dark at room temperature for 30 min before measuring the fluorescent emission of each well at 665 and 615 nm using a 340-nm excitation filter, 100-µs delay time, and 200-µs integration time, on a PHERAStar plate reader (BMG Labtech, Durham, NC, USA). […] Data shown as %Inhibition normalized to AZD6244 at 100 µM.
Sequence of phosphorylated MEK1 (Q02750 whole entry): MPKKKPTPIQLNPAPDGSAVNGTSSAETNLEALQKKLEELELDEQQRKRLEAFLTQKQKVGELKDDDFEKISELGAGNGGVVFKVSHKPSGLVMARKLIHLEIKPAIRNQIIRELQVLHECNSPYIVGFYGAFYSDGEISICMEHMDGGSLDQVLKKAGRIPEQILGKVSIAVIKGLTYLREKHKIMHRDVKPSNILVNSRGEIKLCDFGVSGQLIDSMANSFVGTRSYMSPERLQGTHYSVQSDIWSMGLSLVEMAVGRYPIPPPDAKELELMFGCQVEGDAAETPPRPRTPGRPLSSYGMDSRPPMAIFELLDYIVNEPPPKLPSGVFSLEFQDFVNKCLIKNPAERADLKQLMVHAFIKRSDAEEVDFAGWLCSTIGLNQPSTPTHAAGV

`Cc1c(Cc2ccccc2)c(=O)oc2cc(OS(=O)(=O)c3ccccc3)ccc12` [Compound 69, 3-Benzyl-4-methyl-2-oxo-2H-chromen-7-yl benzenesulfonate]: on phosphorylated MEK1, the inhibition at 2 µM was -11.3% and the inhibition at 20 µM stood at 2.32%.

In the case of `CCCc1c(Cc2ccc(F)cc2)c(=O)oc2cc(OS(=O)(=O)c3ccc(C)cc3)ccc12` [Compound 82, 3-(4-Fluorobenzyl)-2-oxo-4-propyl-2H-chromen-7-yl 4-methylbenzenesulfonate], on phosphorylated MEK1, the inhibition at 2 µM was determined as 37.5% and the inhibition at 20 µM amounted to 45.9%.

Consider `CCCc1c(Cc2ccccc2)c(=O)oc2cc(OC(=O)N(C)C)ccc12` [Compound 16, 3-Benzyl-2-oxo-4-propyl-2H-chromen-7-yl dimethylcarbamate], for which the melting point fell in the range of 117 to 118 °C. Besides, at phosphorylated MEK1, the IC50 was 1040 nM, the inhibition at 2 µM was 70.9% and the inhibition at 20 µM stood at 95.4%.

Turning to `CCCc1c(Cc2ccccc2)c(=O)oc2cc(OS(=O)(=O)c3ccccc3)ccc12` [Compound 72, 3-Benzyl-2-oxo-4-propyl-2H-chromen-7-yl benzenesulfonate], on phosphorylated MEK1, the inhibition at 2 µM was found to be 26% and the inhibition at 20 µM came out at 14%.

In turn, `Cc1c(Cc2ccccc2)c(=O)oc2cc(OC(=O)c3ccccc3)c(Cl)cc12` [Compound 63, 3-Benzyl-6-chloro-4-methyl-2-oxo-2H-chromen-7-yl benzoate] returned a melting point of 133 to 135 °C. Also, at phosphorylated MEK1, the inhibition at 2 µM is 33.3% and the inhibition at 20 µM is 28%.

As for `CCc1c(Cc2ccc(F)cc2)c(=O)oc2cc(OC(=O)C(C)(C)C)ccc12` [Compound 59, 4-Ethyl-3-(4-fluorobenzyl)-2-oxo-2H-chromen-7-yl pivalate], the melting point lay in the range of 103 to 104 °C. For the same compound, at phosphorylated MEK1, the “binding affinity (in words)” value was “inactive”, the inhibition at 2 µM came out at 45.9% and the inhibition at 20 µM was found to be 23.4%.

On to `O=C(c1ccccc1)c1cc2ccc(O)cc2oc1=O` [Compound 85, 3-Benzoyl-7-hydroxycoumarin], for which, on phosphorylated MEK1, the inhibition at 2 µM was found to be 23% and the inhibition at 20 µM is 20.5%.

Take `CCc1c(Cc2ccccc2)c(=O)oc2cc(O)ccc12` [Compound 4d, 3-Benzyl-4-ethyl-7-hydroxy-2H-chromen-2-one]: the melting point is 140 to 141 °C. For the same compound, at phosphorylated MEK1, the inhibition at 2 µM was 27% and the inhibition at 20 µM was determined as 10.4%.

Compound `CCCc1c(Cc2ccc(F)cc2)c(=O)oc2cc(OC(=O)c3ccccc3)ccc12` [Compound 68, 3-(4-Fluorobenzyl)-2-oxo-4-propyl-2H-chromen-7-yl benzoate] yielded a melting point of 95 to 96 °C. Also, on phosphorylated MEK1, the inhibition at 2 µM was 26.1% and the inhibition at 20 µM was determined as 45.6%.

`CCCC(=O)Oc1ccc2c(CCC)c(Cc3ccc(F)cc3)c(=O)oc2c1` [Compound 47, 3-(4-Fluorobenzyl)-2-oxo-4-propyl-2H-chromen-7-yl butyrate] returned a melting point of 88 to 90 °C. Also, at phosphorylated MEK1 (HTRF binding to GST tagged phosphorylated MEK1, read-out: IC50), the IC50 came to 944 nM. Also, on phosphorylated MEK1, the inhibition at 2 µM turned out to be 57% and the inhibition at 20 µM amounted to 70.3%.

`CCCc1c(Cc2ccccc2)c(=O)oc2cc(OC(=O)c3ccccc3)ccc12` [Compound 65, 3-Benzyl-2-oxo-4-propyl-2H-chromen-7-yl benzoate] yielded a melting point of 120 °C. For the same compound, on phosphorylated MEK1, the inhibition at 2 µM was determined as 32.6% and the inhibition at 20 µM was 37.1%.

Compound `COc1ccc2c(C#N)c(C(=O)c3ccccc3)c(=O)oc2c1` [Compound 88, 3-Benzoyl-4-cyano-7-methoxycoumarin] gave a melting point of 175 to 176 °C. Further, at phosphorylated MEK1, the inhibition at 2 µM is 32.4% and the inhibition at 20 µM is 22.9%.

In the case of `N#Cc1c(C(=O)c2ccccc2)c(=O)oc2cc(O)ccc12` [Compound 87, 3-Benzoyl-4-cyano-7-hydroxycoumarin], on phosphorylated MEK1, the inhibition at 2 µM was 31.9% and the inhibition at 20 µM was determined as 30%.

For `CCc1c(Cc2ccccc2)c(=O)oc2cc(OS(=O)(=O)c3ccccc3)ccc12` [Compound 71, 3-Benzyl-4-ethyl-2-oxo-2H-chromen-7-yl benzenesulfonate], on phosphorylated MEK1, the inhibition at 2 µM was found to be 31.1% and the inhibition at 20 µM is -2.35%.

For the compound `CCCc1c(Cc2ccccc2)c(=O)oc2cc(OS(=O)(=O)c3ccc(C)cc3)ccc12` [Compound 79, 3-Benzyl-2-oxo-4-propyl-2H-chromen-7-yl 4-methylbenzenesulfonate], at phosphorylated MEK1, the inhibition at 2 µM was determined as 24.6% and the inhibition at 20 µM was 11.7%.

With `CCc1c(Cc2ccc(F)cc2)c(=O)oc2cc(OS(=O)(=O)c3ccccc3)ccc12` [Compound 73, 4-Ethyl-3-(4-fluorobenzyl)-2-oxo-2H-chromen-7-yl benzenesulfonate], at phosphorylated MEK1, the “binding affinity (in words)” value was “inactive”, the inhibition at 2 µM is 16.6% and the inhibition at 20 µM worked out at 7.4%.

As to `Cc1c(Cc2ccccc2)c(=O)oc2cc(OS(=O)(=O)c3ccccc3)c(Cl)cc12` [Compound 70, 3-Benzyl-6-chloro-4-methyl-2-oxo-2H-chromen-7-yl benzenesulfonate], on phosphorylated MEK1, the inhibition at 2 µM is 29.9% and the inhibition at 20 µM was 24.5%.

For `CCc1c(Cc2ccccc2)c(=O)oc2cc(OS(=O)(=O)c3ccc(C)cc3)ccc12` [Compound 78, 3-Benzyl-4-ethyl-2-oxo-2H-chromen-7-yl 4-methylbenzenesulfonate], on phosphorylated MEK1, the inhibition at 2 µM was found to be 33.2% and the inhibition at 20 µM is 4.76%.

In the case of `Cn1cnc2c(F)c(Nc3ccc(Br)cc3Cl)c(C(=O)NOCCO)cc21` [AZD6244, reference compound], the inhibition at 100 µM on phosphorylated MEK1 came out at 100%.

Regarding `CCCc1c(Cc2ccc(F)cc2)c(=O)oc2cc(OS(=O)(=O)c3ccccc3)ccc12` [Compound 75, 3-(4-Fluorobenzyl)-2-oxo-4-propyl-2H-chromen-7-yl benzenesulfonate], at phosphorylated MEK1, the inhibition at 2 µM came to 21.6% and the inhibition at 20 µM worked out at 13.8%.

For the compound `CN(C)C(=O)Oc1ccc2cc(Cc3ccccc3)c(=O)oc2c1` [Compound 12, 3-benzyl-7-N,N-dimethylcarbamoyloxyl-2H-chromen-2-one], at phosphorylated MEK1, the “binding affinity (in words)” value is listed as “disappearance of affinity”, the inhibition at 2 µM is 31.6% and the inhibition at 20 µM amounted to 25.6%.

Consider `Cc1c(Cc2ccc(F)cc2)c(=O)oc2cc(OS(=O)(=O)c3ccccc3)ccc12` [Compound 74, 3-(4-Fluorobenzyl)-4-methyl-2-oxo-2H-chromen-7-yl benzenesulfonate], for which, on phosphorylated MEK1, the inhibition at 2 µM amounted to 21.4% and the inhibition at 20 µM amounted to 17%.

Take `CCc1c(Cc2ccc(F)cc2)c(=O)oc2cc(OS(=O)(=O)c3ccc(C)cc3)ccc12` [Compound 80, 4-Ethyl-3-(4-fluorobenzyl)-2-oxo-2H-chromen-7-yl 4-methylbenzenesulfonate]: at phosphorylated MEK1, the “binding affinity (in words)” value is “inactive”, the inhibition at 2 µM was 33.1% and the inhibition at 20 µM amounted to 16.5%.

Take `Cc1c(Cc2ccccc2)c(=O)oc2cc(O)c(Cl)cc12` [Compound 4c, 3-Benzyl-6-chloro-7-hydroxy-4-methyl-2H-chromen-2-one]: at phosphorylated MEK1, the inhibition at 2 µM is 15.8% and the inhibition at 20 µM was 5.1%.

Turning to `Cc1c(Cc2ccccc2)c(=O)oc2cc(O)ccc12` [Compound 4b, 3-Benzyl-7-hydroxy-4-methyl-2H-chromen-2-one], on phosphorylated MEK1, the inhibition at 2 µM is -0.81% and the inhibition at 20 µM was -6.03%.
